Assay results published in EP0097031B1, “Nonapeptide and decapeptide analogs of LHRH useful as LHRH antagonists, their preparation and compositions containing them” (SYNTEX (U.S.A.) INC., priority 1982, dated 1988).
dPhe(4-Cl) = N[C@H](Cc1ccc(Cl)cc1)C(=O)O; d2Nal = N[C@H](Cc1ccc2ccccc2c1)C(=O)O; dDeh = not defined here

The substances below were run on female mice (assay: acute subcutaneous toxicity in mice (21-day observation)). Settings: administered subcutaneously to each of 6 female mice, 0.3 m.g. per animal (or 12 mg/kg body weight).
Assay type: in vivo
Description: Compounds 8,16,18,19 and 24 from Example 8 were administered subcutaneously to each of 6 female mice at a dose level of 0.3 m.g. per animal (or 12 mg/kg body weight). During an observation period of 21 days, no deaths were recorded in any of the treatment groups.
The acute subcutaneous LD50 in mice is thus greater than 12 mg/kg for these compounds.

Row | Substance | deaths recorded during an observation period of 21 days
1 | N-Ac-D-Nal(2)-D-p-Cl-Phe-D-Trp-Ser-Tyr-D-Deh-Leu-Arg-Pro-GlyNH2 ({Ac-d2Nal-dPhe(4-Cl)-dW-Ser-Tyr-dDeh}-LRPG-NH2; reading uncertain; also: printed as N-Ac-D-Nal(2)-D-p-Cl-Phe-D-Trp-Ser-Tyr-D-Deh-Leu-Arg-Pro-GlyNH2) [Compound 18] | no deaths
2 | N-Ac-D-Nal(2)-D-p-F-Phe-D-Trp-Ser-Tyr-D-Deh-Leu-Arg-Pro-GlyNH2 [Compound 16] | no deaths
3 | N-Ac-D-p-Cl-Phe-D-p-Cl-Phe-D-Trp-Ser-Tyr-D-Dph-Leu-Arg-Pro-D-AlaNH2 [Compound 8] | no deaths
4 | N-Ac-D-Nal(2)-D-p-Cl-Phe-D-Trp-Ser-Tyr-D-Deh-Leu-Arg-Pro-D-AlaNH2 [Compound 19] | no deaths
